According to patent publication US8471005B2 (Cephalon, Inc., priority 2008, dated 2013):

Experiments:
ALK = target: T1, ALK (Homo sapiens, UniProt Q9UM73); assay: ALK Kinase Assay (ELISA/TRF, PLC-γ substrate); assay type: biochemical; settings: ALK Kinase Inhibition; read-out: ALK Potency
T1 construct: host or cells: baculovirus expression system
Outline: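 IC50 values derive from percent inhibition plotted against log10 compound concentration and fitted to a variable-slope sigmoidal equation. The underlying reaction used 30 ng/ml ALK acting on immobilized PLC-γ (10 μg/mL in TBS) at 37° C for 15 minutes, read with Eu-N1 PT66 antibody.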

JAK2 = target: T2, JAK2 (Homo sapiens, UniProt O60674); assay: Recombinant Human JAK2 Kinase Assay (TRF); assay type: biochemical; settings: JAK2 Kinase Inhibition; read-out: JAK2 Potency
T2 construct: host or cells: baculovirus expression system
T2 sequence (O60674 whole entry): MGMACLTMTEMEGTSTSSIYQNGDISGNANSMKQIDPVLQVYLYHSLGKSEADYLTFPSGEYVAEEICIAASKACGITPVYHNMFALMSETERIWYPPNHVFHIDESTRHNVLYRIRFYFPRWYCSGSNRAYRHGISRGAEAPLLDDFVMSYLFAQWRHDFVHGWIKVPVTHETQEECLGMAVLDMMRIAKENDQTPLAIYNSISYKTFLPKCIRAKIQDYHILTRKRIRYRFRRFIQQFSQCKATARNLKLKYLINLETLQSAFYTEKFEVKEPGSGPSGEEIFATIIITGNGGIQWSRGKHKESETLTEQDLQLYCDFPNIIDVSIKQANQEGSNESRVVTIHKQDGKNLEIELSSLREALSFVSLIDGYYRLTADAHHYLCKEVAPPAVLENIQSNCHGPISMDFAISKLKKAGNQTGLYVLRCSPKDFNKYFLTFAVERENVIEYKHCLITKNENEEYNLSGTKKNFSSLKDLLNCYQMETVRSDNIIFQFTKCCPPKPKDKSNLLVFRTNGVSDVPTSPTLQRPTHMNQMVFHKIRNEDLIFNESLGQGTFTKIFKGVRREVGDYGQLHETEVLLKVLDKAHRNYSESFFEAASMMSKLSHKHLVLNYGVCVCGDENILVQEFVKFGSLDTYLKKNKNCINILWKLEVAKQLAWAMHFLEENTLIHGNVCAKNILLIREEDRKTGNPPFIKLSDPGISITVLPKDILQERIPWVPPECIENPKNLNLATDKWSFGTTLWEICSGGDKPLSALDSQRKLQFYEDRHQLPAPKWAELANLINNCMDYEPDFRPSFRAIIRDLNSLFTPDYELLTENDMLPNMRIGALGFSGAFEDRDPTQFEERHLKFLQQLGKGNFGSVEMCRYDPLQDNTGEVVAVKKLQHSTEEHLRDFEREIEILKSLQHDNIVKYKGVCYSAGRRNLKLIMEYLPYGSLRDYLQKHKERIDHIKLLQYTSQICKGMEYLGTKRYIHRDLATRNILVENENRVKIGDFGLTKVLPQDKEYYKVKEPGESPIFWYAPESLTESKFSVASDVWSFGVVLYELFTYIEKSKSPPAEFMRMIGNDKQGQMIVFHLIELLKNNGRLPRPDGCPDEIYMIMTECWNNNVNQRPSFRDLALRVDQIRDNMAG
Outline: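 Europium-labelled PY100 antibody reported tyrosine phosphorylation of a Neutravidin-captured biotinyl 15-mer peptide by JAK2 (baculovirus-expressed, 15 ng/ml). Conditions: 20 mM HEPES pH 7.2, 0.2 μM ATP, 1 mM MnCl2, 0.1% BSA, DMSO 2.5% final, 20 min at room temperature.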

T1 sequence (Q9UM73 19-1620): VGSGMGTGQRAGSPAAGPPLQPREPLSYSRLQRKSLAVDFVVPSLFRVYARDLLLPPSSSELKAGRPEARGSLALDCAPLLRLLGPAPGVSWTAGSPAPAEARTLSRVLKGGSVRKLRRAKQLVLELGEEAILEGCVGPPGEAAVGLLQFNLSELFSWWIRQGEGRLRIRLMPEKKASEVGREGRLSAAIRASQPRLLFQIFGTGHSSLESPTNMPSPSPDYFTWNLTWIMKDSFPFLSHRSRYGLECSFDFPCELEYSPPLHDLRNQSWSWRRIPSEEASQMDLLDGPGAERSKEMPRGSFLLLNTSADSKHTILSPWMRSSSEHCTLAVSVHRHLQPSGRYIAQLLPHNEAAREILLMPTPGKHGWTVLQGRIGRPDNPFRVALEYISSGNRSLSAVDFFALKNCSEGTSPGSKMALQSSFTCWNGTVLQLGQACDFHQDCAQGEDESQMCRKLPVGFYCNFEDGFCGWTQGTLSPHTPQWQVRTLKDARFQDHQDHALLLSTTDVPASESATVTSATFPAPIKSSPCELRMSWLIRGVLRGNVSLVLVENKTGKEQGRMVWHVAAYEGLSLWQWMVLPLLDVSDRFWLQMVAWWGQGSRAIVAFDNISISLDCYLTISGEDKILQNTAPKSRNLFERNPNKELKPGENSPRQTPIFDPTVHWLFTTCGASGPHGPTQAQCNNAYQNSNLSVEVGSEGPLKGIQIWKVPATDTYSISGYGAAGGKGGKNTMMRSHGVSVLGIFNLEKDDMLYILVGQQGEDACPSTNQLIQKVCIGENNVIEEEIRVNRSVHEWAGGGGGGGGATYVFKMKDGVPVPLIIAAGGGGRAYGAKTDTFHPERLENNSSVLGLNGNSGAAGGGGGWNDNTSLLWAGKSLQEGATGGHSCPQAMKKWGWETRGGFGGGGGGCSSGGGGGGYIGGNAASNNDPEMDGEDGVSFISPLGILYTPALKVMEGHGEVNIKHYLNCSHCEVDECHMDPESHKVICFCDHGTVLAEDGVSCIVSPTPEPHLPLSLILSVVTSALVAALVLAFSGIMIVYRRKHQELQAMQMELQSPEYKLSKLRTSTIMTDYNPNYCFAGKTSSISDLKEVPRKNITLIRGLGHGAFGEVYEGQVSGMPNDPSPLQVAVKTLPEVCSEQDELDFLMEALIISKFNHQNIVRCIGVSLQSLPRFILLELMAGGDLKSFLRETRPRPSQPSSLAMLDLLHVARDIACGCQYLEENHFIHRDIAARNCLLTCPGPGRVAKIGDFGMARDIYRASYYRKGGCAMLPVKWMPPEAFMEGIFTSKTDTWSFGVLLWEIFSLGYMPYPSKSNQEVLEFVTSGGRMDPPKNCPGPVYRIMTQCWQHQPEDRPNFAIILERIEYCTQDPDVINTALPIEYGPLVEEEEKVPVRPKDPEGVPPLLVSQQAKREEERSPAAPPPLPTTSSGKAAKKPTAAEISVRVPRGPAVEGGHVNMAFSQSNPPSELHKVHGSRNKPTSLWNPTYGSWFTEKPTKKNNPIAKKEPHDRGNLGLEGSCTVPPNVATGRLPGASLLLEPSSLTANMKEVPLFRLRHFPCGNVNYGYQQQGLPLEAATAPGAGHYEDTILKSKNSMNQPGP

COc1cc(N2CCCC(N3CCN(S(C)(=O)=O)CC3)C2)ccc1Nc1ncc2ccc(-c3ccccc3OC)n2n1 (stereo not shown) [Example 233, {4-[3-(4-Methanesulfonyl-piperazin-1-yl)-piperidin-1-yl]-2-methoxy-phenyl}-[7-(2-methoxy-phenyl)-pyrrolo[2,1-f][1,2,4]triazin-2-yl]-amine]
IC50 (ALK): < 0.1 µM | IC50 (JAK2): < 0.1 µM

COc1cc(N2CCCC(N3CCN(C(=O)OCc4ccccc4)CC3)C2)ccc1Nc1ncc2ccc(-c3ccccc3OC)n2n1 (stereo not shown) [Example 234, 4-(1-{3-Methoxy-4-[7-(2-methoxy-phenyl)-pyrrolo[2,1-f][1,2,4]triazin-2-ylamino]-phenyl}-piperidin-3-yl)-piperazine-1-carboxylic acid benzyl ester]
IC50 (ALK): 0.1 to 1 µM | IC50 (JAK2): 1 to 10 µM

COc1cc(N2CCCC(N3CCN(C)CC3)C2)ccc1Nc1ncc2ccc(-c3ccccc3OC)n2n1 (stereo not shown) [Example 235, {2-Methoxy-4-[3-(4-methyl-piperazin-1-yl)-piperidin-1-yl]-phenyl}-[7-(2-methoxy-phenyl)-pyrrolo[2,1-f][1,2,4]triazin-2-yl]-amine]
IC50 (ALK): < 0.1 µM | IC50 (JAK2): 0.1 to 1 µM

COc1cc(N2CCC(N3CCN(C)CC3)CC2)ccc1Nc1ncc2ccc(-c3cccnc3)n2n1 [Example 241]
IC50 (ALK): < 0.1 µM | IC50 (JAK2): 0.1 to 1 µM

CNC(=O)c1ccc(-c2ccc3cnc(Nc4ccc(N5CCC(N6CCN(C)CC6)CC5)cc4OC)nn23)cc1 [Example 242, 4-(2-{2-Methoxy-4-[4-(4-methyl-piperazin-1-yl)-piperidin-1-yl]-phenylamino}-pyrrolo[2,1-f][1,2,4]triazin-7-yl)-N-methyl-benzamide]
IC50 (ALK): < 0.1 µM | IC50 (JAK2): < 0.1 µM

COc1cc(N2CCC(N3CCN(C)CC3)CC2)ccc1Nc1ncc2ccc(-c3ccccc3OC)n2n1 [Example 251, {2-Methoxy-4-[4-(4-methyl-piperazin-1-yl)-piperidin-1-yl]-phenyl}-[7-(2-methoxy-phenyl)-pyrrolo[2,1-f][1,2,4]triazin-2-yl]-amine]
IC50 (ALK): < 0.1 µM | IC50 (JAK2): < 0.1 µM

CCN1CCOC(c2ccc(Nc3ncc4ccc(-c5ccccc5OC)n4n3)cc2)C1 (stereo not shown) [Example 252, [4-(4-Ethyl-morpholin-2-yl)-phenyl]-[7-(2-methoxy-phenyl)-pyrrolo[2,1-f][1,2,4]triazin-2-yl]-amine]
IC50 (ALK): < 0.1 µM | IC50 (JAK2): < 0.1 µM

CCN1CCOC(c2ccc(Nc3ncc4ccc(-c5cc(Cl)ccc5OC)n4n3)cc2)C1 (stereo not shown) [Example 253, [7-(5-Chloro-2-methoxy-phenyl)-pyrrolo[2,1-f][1,2,4]triazin-2-yl]-[4-(4-ethyl-morpholin-2-yl)-phenyl]-amine]
IC50 (ALK): < 0.1 µM | IC50 (JAK2): < 0.1 µM

c1ccc2c(c1)cc1cnc(Nc3ccc(N4CCOCC4)cc3)nn12 [Example 261, (4-Morpholin-4-yl-phenyl)-[1,2,4]triazino[1,6-a]indol-2-yl-amine]
IC50 (ALK): 0.1 to 1 µM | IC50 (JAK2): < 0.1 µM

COc1cc(N2CCC(N3CCN(C)CC3)CC2)ccc1Nc1ncc2cc3ccccc3n2n1 [Example 262, {2-Methoxy-4-[4-(4-methyl-piperazin-1-yl)-piperidin-1-yl]-phenyl}-[1,2,4]triazino[1,6-a]indol-2-yl-amine]
IC50 (ALK): 0.1 to 1 µM | IC50 (JAK2): 1 to 10 µM

CN1CCN(c2ccc(Nc3ncc4cc5ccccc5n4n3)cc2)CC1 [Example 263, [4-(4-Methyl-piperazin-1-yl)-phenyl]-[1,2,4]triazino[1,6-a]indol-2-yl-amine]
IC50 (ALK): 0.1 to 1 µM | IC50 (JAK2): < 0.1 µM

CN1CCN(C2CCN(c3ccc(Nc4ncc5cc6ccccc6n5n4)cc3)CC2)CC1 [Example 264, {4-[4-(4-Methyl-piperazin-1-yl)-piperidin-1-yl]-phenyl}-[1,2,4]triazino[1,6-a]indol-2-yl-amine]
IC50 (ALK): 1 to 10 µM | IC50 (JAK2): < 0.1 µM

CC1(C)CCC(=O)Nc2cc(Nc3ncc4cc5ccccc5n4n3)ccc21 [Example 265, 5,5-Dimethyl-8-([1,2,4]triazino[1,6-a]indol-2-ylamino)-1,3,4,5-tetrahydro-benzo[b]azepin-2-one]
IC50 (ALK): > 10 µM | IC50 (JAK2): < 0.1 µM

COc1cc(N2CCOCC2)ccc1Nc1ncc2cc3ccccc3n2n1 [Example 266, (2-Methoxy-4-morpholin-4-yl-phenyl)-[1,2,4]triazino[1,6-a]indol-2-yl-amine]
IC50 (ALK): 1 to 10 µM | IC50 (JAK2): > 10 µM

COc1cc(N2CCN(C)CC2)ccc1Nc1ncc2cc3ccccc3n2n1 [Example 267, [2-Methoxy-4-(4-methyl-piperazin-1-yl)-phenyl]-[1,2,4]triazino[1,6-a]indol-2-yl-amine]
IC50 (ALK): 0.1 to 1 µM | IC50 (JAK2): 1 to 10 µM

COc1ccc2c(c1)cc1cnc(Nc3ccc(N4CCOCC4)cc3)nn12 [Example 268, (7-Methoxy-[1,2,4]triazino[1,6-a]indol-2-yl)-(4-morpholin-4-yl-phenyl)-amine]
IC50 (ALK): > 10 µM | IC50 (JAK2): < 0.1 µM

COc1ccc2c(c1)cc1cnc(Nc3ccc(N4CCOCC4)cc3OC)nn12 [Example 269, (2-Methoxy-4-morpholin-4-yl-phenyl)-(7-methoxy-[1,2,4]triazino[1,6-a]indol-2-yl)-amine]
IC50 (ALK): 1 to 10 µM | IC50 (JAK2): 1 to 10 µM

c1ccc(Nc2ncc3cc4ccccc4n3n2)cc1 [Example 270, Phenyl-[1,2,4]triazino[1,6-a]indol-2-yl-amine]
IC50 (ALK): > 10 µM | IC50 (JAK2): 0.1 to 1 µM

Clc1cccc(Nc2ncc3cc4ccccc4n3n2)c1 [Example 271, (3-Chloro-phenyl)-[1,2,4]triazino[1,6-a]indol-2-yl-amine]
IC50 (ALK): > 10 µM | IC50 (JAK2): 0.1 to 1 µM

COc1cccc(Nc2ncc3cc4ccccc4n3n2)c1 [Example 272, (3-Methoxy-phenyl)-[1,2,4]triazino[1,6-a]indol-2-yl-amine]
IC50 (ALK): > 10 µM | IC50 (JAK2): < 0.1 µM

CN(C)S(=O)(=O)c1cccc(Nc2ncc3cc4ccccc4n3n2)c1 [Example 273, N,N-Dimethyl-3-([1,2,4]triazino[1,6-a]indol-2-ylamino)-benzenesulfonamide]
IC50 (ALK): > 10 µM | IC50 (JAK2): 0.1 to 1 µM

COc1ccccc1-c1ccc2cnc(Nc3ccc(C(C)C)c(NC(C)=O)c3)nn12 [Example 301, N-{2-Isopropyl-5-[7-(2-methoxy-phenyl)-pyrrolo[2,1-f][1,2,4]triazin-2-ylamino]-phenyl}-acetamide]
IC50 (ALK): 0.1 to 1 µM | IC50 (JAK2): < 0.1 µM

CC(=O)Nc1cc(Nc2ncc3ccc(-c4cccc(Cl)c4)n3n2)ccc1C(C)C [Example 303, N-{5-[7-(3-Chloro-phenyl)-pyrrolo[2,1-f][1,2,4]triazin-2-ylamino]-2-isopropyl-phenyl}-acetamide]
IC50 (ALK): 1 to 10 µM | IC50 (JAK2): < 0.1 µM

CC(=O)Nc1cc(Nc2ncc3ccc(-c4cccnc4)n3n2)ccc1C(C)C [Example 304, N-[2-Isopropyl-5-(7-pyridin-3-yl-pyrrolo[2,1-f][1,2,4]triazin-2-ylamino)-phenyl]-acetamide]
IC50 (ALK): 1 to 10 µM | IC50 (JAK2): < 0.1 µM

COc1ccc(Cl)cc1-c1ccc2cnc(Nc3ccc(C(C)(C)C)c(NC(C)=O)c3)nn12 [Example 306, N-{2-tert-Butyl-5-[7-(5-chloro-2-methoxy-phenyl)-pyrrolo[2,1-f][1,2,4]triazin-2-ylamino]-phenyl}-acetamide]
IC50 (ALK): 0.1 to 1 µM | IC50 (JAK2): < 0.1 µM

CC(=O)Nc1cc(Nc2ncc3ccc(-c4cccc(Cl)c4)n3n2)ccc1C(C)(C)C [Example 307, N-{2-tert-Butyl-5-[7-(3-chloro-phenyl)-pyrrolo[2,1-f][1,2,4]triazin-2-ylamino]-phenyl}-acetamide]
IC50 (ALK): > 10 µM | IC50 (JAK2): < 0.1 µM
